Source: US20090214607A1, “Topical use of teprenone” (SEDERMA, priority 2005, published 2009)

Columns and labels:
[1] = test system: IL8; assay: IL8 in supernatant of γ-irradiated NHEK cells (ELISA); type: cell-based, human; conditions: for decrease of IL8: vs irradiated control; for expression of IL8: γ-irradiation 5 Gγ, 4 days
Procedure: In order to determine the action of teprenone as per the invention, the effect of GGA on the IL8 and VEGF expression was investigated in the supernatants of irradiated (with 5 Gy) NHEK cells. After γ-irradiation, NHEK cells are treated during 4 days with or without GGA at differents concentrations. The amount of IL8 and VEGF present in the cells supernatant is determined with ELISA method.

[2] = Lipid peroxidation of liposomes using UVA radiation; type: biochemical; conditions: UVA induced, vs negative control
Procedure: In order to determine the action of teprenone as per the invention, the effect of the active substance on the lipid peroxidation of liposomes was analyzed. The liposomes were used to model cutaneous lipids.
In this method, liposomes are exposed to the test compound and then to UV A radiation. Peroxidation is determined by spectrophotometry at 233 nm.

[3] = test system: Normal human fibroblasts (FHN); assay: Replicative capacity of serially sub-cultured fibroblasts; type: cell-based
Description: Normal human fibroblasts are able to divide a limited number of times: according to the literature, 30 times approximately. Progressively, the cells change morphology and become less and less suited to the mitosis: time between 2 mitoses lengthens, the cellular metabolism is very slowed down, the cells are known as senescent.
Normal human fibroblasts (FHN) are cultivated until the “12th cycle” in order to begin the tests with cells already part-time from the duration life (=12 cycles of replication on 30 cycles), they are then separate in 3 batches: The batch control, the batch treated daily by 1 μM of teprenone and the batch daily treated with 3 μM of teprenone.
Each plate contains ˜50 000 cells and the cells cultivated in medium DMEM, until confluency or until obtaining enough cells for the taking away of 50 000 cells necessary to the following cycle. At each time the cells are collected by trypsinisation, are counted, and aliquot of 50 000 cells seeded for the following cycle. This cycle is repeated until it is no more possible to obtain cellular multiplication.

[4] = test system: NHEK; assay: NHEK cell re-colonization after scraping and irradiation; type: cell-based, human; conditions: 3 · 10^−5%
Procedure: NHEK were inoculated into Labtech microplates and cultured to post-confluence with or without teprenone. The cultures were then mechanically scraped and exposed to radiation at a dose level of 0, 5 or 10 Gy. The percentage area re-colonized post-irradiation was determined.

Question: With CC(=O)CCC=C(C)CCC=C(C)CCC=C(C)CCC=C(C)C [Teprenone, 6,10,14,18-tetramethyl-5,9,13-nonadecatetren-2-one] as the compound, how does the “decrease of IL8” value ([1]; 1.10^−4%) read?
Answer: −67%

Question: And the “decrease of IL8” value ([1]; 3.10^−5%)?
Answer: −50%

Question: And the “expression of IL8” value ([1]; 1 · 10^−4%)?
Answer: 2.12 pg/10^5 cells

Question: What about the “expression of IL8” value ([1]; 3 · 10^−5%) of the same compound?
Answer: 3.25 pg/10^5 cells

Question: And the Variation of peroxydation ([2]; concentration 3 · 10^−2%)?
Answer: −77%

Question: And the Variation of peroxydation ([2]; concentration 3 · 10^−3%)?
Answer: −10%

Question: What about the Variation of peroxydation ([2]; concentration 3 · 10^−4%) of the same compound?
Answer: −22%

Question: What about the Variation of peroxydation ([2]; concentration 10^−2%) of the same compound?
Answer: −52%

Question: And the Variation of peroxydation ([2]; concentration 10^−3%)?
Answer: −12%

Question: What about the “cycle until which the fibroblasts remained more active” value ([3]; 1 μM) of the same compound?
Answer: 22

Question: And the “entry into marked senescence, later than the controls” value ([3]; 1 μM)?
Answer: 44 days

Question: And the “Nb cells (×10^3)” value ([3]; 1 μM, cycle 13 (7 d))?
Answer: 204 ×10^3

Question: What about the “Nb cells (×10^3)” value ([3]; 1 μM, cycle 14 (8 d)) of the same compound?
Answer: 214 ×10^3

Question: What about the “Nb cells (×10^3)” value ([3]; 1 μM, cycle 15 (11 d)) of the same compound?
Answer: 199 ×10^3

Question: What about the “Nb cells (×10^3)” value ([3]; 1 μM, cycle 16 (14 d)) of the same compound?
Answer: 186 ×10^3

Question: What about the “Nb cells (×10^3)” value ([3]; 1 μM, cycle 17 (13 d)) of the same compound?
Answer: 164 ×10^3

Question: What about the “Nb cells (×10^3)” value ([3]; 1 μM, cycle 18 (18 d)) of the same compound?
Answer: 197 ×10^3

Question: What about the “Nb cells (×10^3)” value ([3]; 1 μM, cycle 19 (17 ds)) of the same compound?
Answer: 185 ×10^3

Question: And the “Nb cells (×10^3)” value ([3]; 1 μM, cycle 20 (14 d))?
Answer: 124 ×10^3

Question: What about the “Replicative capac vs control” value ([3]; 1 μM, cycle 20 (14 d)) of the same compound?
Answer: +13

Question: And the “Nb cells (×10^3)” value ([3]; 1 μM, cycle 21 (22 d))?
Answer: 130 ×10^3

Question: What about the “Replicative capac vs control” value ([3]; 1 μM, cycle 21 (22 d)) of the same compound?
Answer: +38

Question: What about the “Nb cells (×10^3)” value ([3]; 1 μM, cycle 22 (20 d)) of the same compound?
Answer: 146 ×10^3

Question: What about the “Replicative capac vs control” value ([3]; 1 μM, cycle 22 (20 d)) of the same compound?
Answer: +117

Question: And the “Nb cells (×10^3)” value ([3]; 1 μM, cycle 23 (36 d))?
Answer: 105 ×10^3

Question: And the “Replicative capac vs control” value ([3]; 1 μM, cycle 23 (36 d))?
Answer: +25

Question: And the “Nb cells (×10^3)” value ([3]; 1 μM, cycle 24 (28 d))?
Answer: 66 ×10^3

Question: And the “Replicative capac vs control” value ([3]; 1 μM, cycle 24 (28 d))?
Answer: ns

Question: And the “Nb cells (×10^3)” value ([3]; 1 μM, cycle 25 (77 d))?
Answer: 59 ×10^3

Question: What about the “Replicative capac vs control” value ([3]; 1 μM, cycle 25 (77 d)) of the same compound?
Answer: ns

Question: What about the “cycle until which the fibroblasts retained their replicative potential” value ([3]; 3 μM) of the same compound?
Answer: 24

Question: And the “fibroblast lifetime extended with no impairment of replicative capacity” value ([3]; 3 μM)?
Answer: 100 days

Question: What about the “replicative potential retained, later than the controls” value ([3]; 3 μM) of the same compound?
Answer: 100 days

Question: And the “activity of treated cells vs control cells after replicative potential began to subside” value ([3]; 3 μM, after cycle 24)?
Answer: almost two-fold more active than the control cells

Question: And the “Nb cells (×10^3)” value ([3]; 3 μM, cycle 13 (7 d))?
Answer: 213 ×10^3

Question: What about the “Nb cells (×10^3)” value ([3]; 3 μM, cycle 14 (8 d)) of the same compound?
Answer: 195 ×10^3

Question: And the “Nb cells (×10^3)” value ([3]; 3 μM, cycle 15 (11 d))?
Answer: 140 ×10^3

Question: What about the “Nb cells (×10^3)” value ([3]; 3 μM, cycle 16 (14 d)) of the same compound?
Answer: 167 ×10^3

Question: What about the “Nb cells (×10^3)” value ([3]; 3 μM, cycle 17 (13 d)) of the same compound?
Answer: 166 ×10^3

Question: What about the “Nb cells (×10^3)” value ([3]; 3 μM, cycle 18 (18 d)) of the same compound?
Answer: 192 ×10^3

Question: What about the “Nb cells (×10^3)” value ([3]; 3 μM, cycle 19 (17 ds)) of the same compound?
Answer: 198 ×10^3

Question: What about the “Nb cells (×10^3)” value ([3]; 3 μM, cycle 20 (14 d)) of the same compound?
Answer: 145 ×10^3

Question: What about the “Replicative capac vs control” value ([3]; 3 μM, cycle 20 (14 d)) of the same compound?
Answer: +33

Question: What about the “Nb cells (×10^3)” value ([3]; 3 μM, cycle 21 (22 d)) of the same compound?
Answer: 154 ×10^3

Question: What about the “Replicative capac vs control” value ([3]; 3 μM, cycle 21 (22 d)) of the same compound?
Answer: +64

Question: And the “Nb cells (×10^3)” value ([3]; 3 μM, cycle 22 (20 d))?
Answer: 157 ×10^3

Question: What about the “Replicative capac vs control” value ([3]; 3 μM, cycle 22 (20 d)) of the same compound?
Answer: +134

Question: What about the “Nb cells (×10^3)” value ([3]; 3 μM, cycle 23 (36 d)) of the same compound?
Answer: 204 ×10^3

Question: And the “Replicative capac vs control” value ([3]; 3 μM, cycle 23 (36 d))?
Answer: +99

Question: And the “Nb cells (×10^3)” value ([3]; 3 μM, cycle 24 (28 d))?
Answer: 115 ×10^3

Question: And the “Replicative capac vs control” value ([3]; 3 μM, cycle 24 (28 d))?
Answer: +79

Question: And the “Nb cells (×10^3)” value ([3]; 3 μM, cycle 25 (77 d))?
Answer: 95 ×10^3

Question: And the “Replicative capac vs control” value ([3]; 3 μM, cycle 25 (77 d))?
Answer: 82

Question: And the “% on NHEK re-colonization 24 hours after” value ([4]; 5 Gγ)?
Answer: faster re-colonization

Question: And the “% on NHEK re-colonization 24 hours after” value ([4]; 5 Gγ, listed as GGA)?
Answer: 80%

Question: And the “% on NHEK re-colonization 24 hours after” value ([4]; 10 Gγ)?
Answer: 60%

Question: What about the “% on NHEK re-colonization 24 hours after” value ([4]; not irradiated) of the same compound?
Answer: 62%
